Test results taken from ChEMBL document CHEMBL1201862, “PubChem BioAssay data set” (2004).
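Five compound concentrations were applied to cells in 96-well plates for 48 hours; endpoints were derived by simple linear interpolation of the resulting dose-response curve. Abbreviation: GI50, concentration required for 50% inhibition of growth.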 The source made the active and inactive calls. No stated cut-off is given here; in the data, active = GI50 up to about 1.1 µM and inactive = higher.

Columns and labels:
Test in all cases: NCI tumour cell line growth inhibition, 48 h
NCI-H460 = tested on: NCI-H460
KM12 = tested on: KM12
CAKI-1 = tested on: CAKI-1
SF-268 = tested on: SF-268
SF-295 = tested on: SF-295
SK-MEL-28 = tested on: SK-MEL-28
HCT-116 = tested on: HCT-116
NCI-H522 = tested on: NCI-H522
RXF 393 = tested on: RXF 393
DU-145 = tested on: DU-145
HT-29 = tested on: HT-29
LOX IMVI = tested on: LOX IMVI
UACC-257 = tested on: UACC-257
MDA-MB-231 = tested on: MDA-MB-231
ACHN = tested on: ACHN
U-251 = tested on: U-251
PC-3 = tested on: PC-3
SNB-75 = tested on: SNB-75
A549 = tested on: A549
UO-31 = tested on: UO-31
MOLT-4 = tested on: MOLT-4
M14 = tested on: M14
HCC 2998 = tested on: HCC 2998
A498 = tested on: A498
SW-620 = tested on: SW-620
HOP-92 = tested on: HOP-92
IGROV-1 = tested on: IGROV-1
K562 = tested on: K562
EKVX = tested on: EKVX
COLO 205 = tested on: COLO 205
HOP-62 = tested on: HOP-62
CCRF-CEM = tested on: CCRF-CEM
MDA-N = tested on: MDA-N
OVCAR-3 = tested on: OVCAR-3
NCI-H23 = tested on: NCI-H23
SF-539 = tested on: SF-539
SN12C = tested on: SN12C
HCT-15 = tested on: HCT-15
OVCAR-5 = tested on: OVCAR-5
RPMI-8226 = tested on: RPMI-8226
SR = tested on: SR
786-0 = tested on: 786-0
SK-MEL-5 = tested on: SK-MEL-5
Hs-578T = tested on: Hs-578T
Malme-3M = tested on: Malme-3M
MDA-MB-435 = tested on: MDA-MB-435
TK-10 = tested on: TK-10
SNB-19 = tested on: SNB-19
T47D = tested on: T47D
MCF7 = tested on: MCF7
NCI-H226 = tested on: NCI-H226
BT-549 = tested on: BT-549
HL-60 = tested on: HL-60
NCI/ADR-RES = tested on: NCI/ADR-RES
OVCAR-8 = tested on: OVCAR-8

For COc1cc(CNNC(N)=S)cc(OC)c1OC, the GI50 (NCI-H460) was > 100 µM (inactive), the GI50 (KM12) was > 100 µM (inactive) and the GI50 (CAKI-1) was 6.27 µM (inactive). The GI50 (SF-268) was > 100 µM (inactive), the GI50 (SF-295) was > 100 µM (inactive) and the GI50 (SK-MEL-28) was > 100 µM (inactive). For the same compound, the GI50 (HCT-116) was > 100 µM (inactive), the GI50 (NCI-H522) was > 100 µM (inactive) and the GI50 (RXF 393) was > 100 µM (inactive). The GI50 (DU-145) was > 100 µM (inactive), the GI50 (HT-29) was > 100 µM (inactive) and the GI50 (LOX IMVI) was > 100 µM (inactive). For the same compound, the GI50 (UACC-257) was > 100 µM (inactive), the GI50 (MDA-MB-231) was > 100 µM (inactive) and the GI50 (ACHN) was > 100 µM (inactive). For the same compound, the GI50 (U-251) was > 100 µM (inactive), the GI50 (PC-3) was > 100 µM (inactive) and the GI50 (SNB-75) was > 100 µM (inactive). For the same compound, the GI50 (A549) was > 100 µM (inactive), the GI50 (UO-31) was > 100 µM (inactive) and the GI50 (MOLT-4) was > 100 µM (inactive). For the same compound, the GI50 (M14) was > 100 µM (inactive), the GI50 (HCC 2998) was > 100 µM (inactive) and the GI50 (A498) was > 100 µM (inactive). The GI50 (SW-620) was > 100 µM (inactive), the GI50 (HOP-92) was 3.46 µM (inactive) and the GI50 (IGROV-1) was > 100 µM (inactive). The GI50 (K562) was > 100 µM (inactive), the GI50 (EKVX) was > 100 µM (inactive) and the GI50 (COLO 205) was > 100 µM (inactive). For the same compound, the GI50 (HOP-62) was 90.6 µM (inactive), the GI50 (CCRF-CEM) was > 100 µM (inactive) and the GI50 (MDA-N) was > 100 µM (inactive). For the same compound, the GI50 (OVCAR-3) was > 100 µM (inactive), the GI50 (NCI-H23) was > 100 µM (inactive) and the GI50 (SF-539) was > 100 µM (inactive). For the same compound, the GI50 (SN12C) was > 100 µM (inactive), the GI50 (HCT-15) was greater than 100 µM and the GI50 (OVCAR-5) was 95.1 µM (inactive). The GI50 (RPMI-8226) was > 100 µM (inactive), the GI50 (SR) was > 100 µM (inactive) and the GI50 (786-0) was > 100 µM (inactive). For the same compound, the GI50 (SK-MEL-5) was > 100 µM (inactive), the GI50 (Hs-578T) was > 100 µM (inactive) and the GI50 (Malme-3M) was > 100 µM (inactive). For the same compound, the GI50 (MDA-MB-435) was > 100 µM (inactive), the GI50 (TK-10) was > 100 µM (inactive) and the GI50 (SNB-19) was > 100 µM (inactive). The GI50 (T47D) was 7.03 µM (inactive), the GI50 (MCF7) was > 100 µM (inactive) and the GI50 (NCI-H226) was > 100 µM (inactive). The GI50 (BT-549) was 22.3 µM (inactive), the GI50 (HL-60) was > 100 µM (inactive) and the GI50 (NCI/ADR-RES) was > 100 µM (inactive). The GI50 (OVCAR-8) was > 100 µM (inactive).
